Test results published in patent US10945983B2, “Oleocanthal isolation and cancer treatment” (Board of Supervisors for the University of Louisiana System, priority 2016, dated 2021).
pIC50: −log10 of the molar value. Read-outs that look alike come from different tables or passages of the source.

Experiments:
BT-474 human BC cells = settings: for BT-474 tumor weight inhibition vs vehicle: 3×/week, intraperitoneal, 60 days; for BT-474 tumor growth inhibition: 5×/week
Description: 5×10^6 cells/20 μL BT-474 human BC cells were sc inoculated into second mammary gland fat pad of athymic nude (Foxn1^nu/Foxn^1). […] Top panels show photographs of representative intact animal for each group. Bottom panels show photographs of excised primary tumor at experiment end.
Turning to FIGS. 28A-32, the HER2+ BC represents >15% of total BC cases with aggressive metastatic and highly resistant profile.

mTOR = mTOR (Homo sapiens, UniProt P42345); settings: read-out: IC50 mTOR enzymatic activity; cited from earlier work
HER2+-ER+BT-474 BC cells = test: BT-474 recurrence after neoadjuvant lapatinib regimen; type: in vivo, athymic nude mice; settings: OC 10 mg/kg, ip, 3×/week, additional 54 days after lapatinib 50 mg/kg for 60 days
Description: FIG. 36A is a photograph of representative animals of vehicle control group and two photographs showing circled tumor developed over the additional 54 days period. FIG. 36B is two photographs of representative animals that completed 60 days oral lapatinib 50 mg/kg group and two photographs of developed circled tumors after additional 54 days. FIG. 36C is two photographs of representative animals of 10 mg OC 1p, 3×/week group, and two photographs showing no tumor developed over the additional 54 days regimen.
(§1) The correlation between c-Met/HGF pathway and tumor resistance is documented. […] This was consistent with the OC c-Met inhibitory activity and previously shown growth and recurrence effects.

BT-474 tumor recurrence = test: HER2+/ER+ BT-474 recurrence after primary tumor surgical excision; settings: for recurrence tumor weight inhibition: additional 54 days after excision
Description: Female athymic nude mice used in previous experiment were anesthetized prior to the surgical excision procedure with ip ketamine/xylazine combination (100 mg/kg/15 mg/kg). 15-20 min after administering the anesthetic animal reflexes tested by gently tapping the hind legs with sterile syringe needle and finally their tumors were surgically excised and each wound was closed by one or two stitches. Ketoprofen, 1 mg/kg was used 12 hours before and 12 h after surgery for effective analgesia. Ophthalmic lubricant was used during the surgery to prevent corneal drying. Bupivicaine (0.25%, 1-2 drops), twice daily, was used topically at the excision wound site, local infiltration along surgery site during closure with a maximum dose of 2 mg/kg.

[1] = tested on: MDA-MB-231/GFP human breast cancer cells; test: Orthotopic TNBC xenograft model in athymic mice; type: in vivo, athymic nude mice; settings: intraperitoneal 5 mg/kg, 3× per week; previous experiments of the inventors
Description: MDA-MB-231/GFP human breast cancer cells were cultured and resuspended in serum-free DMEM medium (20 μl). After anesthesia, cell suspensions (1×10^6 cells/20 μl) were inoculated subcutaneously into the second mammary gland fat pad just beneath the nipple of each athymic nude mouse to generate orthotopic breast tumors. […] FIG. 20 is a line chart showing tumor size was evaluated periodically during treatment at indicated days postinoculation. Tumor volume (V) was calculated by V=L/2×W^2, where L was the length and W was the width of tumors. […]
Turning to FIGS. 20-23, in the current disclosure, as a future dietary candidate OC nano-emulsion oral in vivo antitumor efficacy was assessed using the same mouse model using MDA-MB-231/GFP human BC cells. […] The mice were monitored by measuring body weight, and observation of their physical behavior throughout the study. […]
MDA-MB-231/GFP human breast cancer cells were harvested, pelleted by centrifugation at 850×g for 5 minutes, and re-suspended in sterile serum-free DMEM medium (20 μL). […] The mice were monitored by measuring tumor volume, body weight, and clinical observation. Tumor volume (V) was calculated by V=L/2×W^2, where L was the length and W was the width of tumors. […]

TNBC MDA-MB-231 BC cells = test: TNBC recurrence after neoadjuvant paclitaxel; type: in vivo; settings: 10 mg/kg oral daily
Text: as §1

Q: Which “BT-474 tumor weight inhibition vs vehicle” value (BT-474 human BC cells; 5 mg/kg) does the source give for C/C=C(/C=O)[C@@H](CC=O)CC(=O)OCCc1ccc(O)cc1 [OC, (-)-Oleocanthal] here?
A: The value was 88.2%.

Q: And the “BT-474 tumor weight inhibition vs vehicle” value (BT-474 human BC cells; 10 mg/kg)?
A: The value was 93.2%.

Q: What about the pIC50 (mTOR) of the same compound?
A: The pIC50 was 6.15.

Q: And the “tumor recurrence after lapatinib regimen” value (HER2+-ER+BT-474 BC cells)?
A: The value was “inhibited the HER2+-ER+BT-474 BC cells recurrence”.

Q: What about the “recurrence tumor weight inhibition” value (BT-474 tumor recurrence; 10 mg/kg, ip, 3×/week) of the same compound?
A: The value was 86.2%.

Q: And the tumor growth inhibition [1]?
A: The tumor growth inhibition was 65%.

Q: And the “recurrence and chemoresistance after neoadjuvant paclitaxel” value (TNBC MDA-MB-231 BC cells)?
A: The value was “effectively inhibited in vivo recurrence and reversed chemoresistance”.

Q: Which “BT-474 tumor growth inhibition” value (BT-474 human BC cells; 12.5 mg oral dose) does the source give for CS(=O)(=O)CCNCc1ccc(-c2ccc3ncnc(Nc4ccc(OCc5cccc(F)c5)c(Cl)c4)c3c2)o1 [lapatinib, reference compound] here?
A: Its value is 85.9%.

Q: And the “BT-474 tumor growth inhibition” value (BT-474 human BC cells; 50 mg oral dose)?
A: Its value is 89.9%.

Q: And the “recurrence tumor weight inhibition” value (BT-474 tumor recurrence; 50 mg/kg, 5×/week oral)?
A: Its value is 81.4%.

Q: What about the body weight (BT-474 tumor recurrence; lapatinib 50 mg/kg, additional 54 days) of the same compound?
A: The body weight was “significant weight decrease”.
